Read-outs that look alike come from different tables or passages of the source. Where only a bound is given, the exact number is not on record here.

The results in this text go back to patent publication US9416115B2, “Fused heterocyclic compounds as ion channel modulators” (Gilead Sciences, Inc., priority 2013, dated 2016).

Test [1] concerns the target wild-type human cardiac sodium channel, hNav1.5 (Homo sapiens, UniProt Q14524). Nature of the test: Peak INa screening assay (tonic block and use-dependent block). It is filed as cell-based. The method, boiled down:
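HEK293 cells stably expressing hNav1.5 (no beta subunits), automated whole-cell patch clamp at 23-25° C, 40 mM Na+ bath (choline substitution), pH 7.35. Compound at 1 or 3 μM, added twice then 200 s equilibration; tonic block by steps to −20 mV from −100 mV at 0.1 Hz, use-dependent block at pulse 50 of a 3 Hz train, rundown-corrected versus compound-free.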

The next test concerns the target T1, hNaV1.2 (SCN2A) (Homo sapiens, UniProt Q99250).
T1 construct: expressed in transfected cells
Briefly: Use-dependent inhibition of the CNS Nav1.2 sodium channel. The note with it: use-dependent block, 25 Hz, pulse 20, read-out: Nav1.2 UDB 25 Hz 10 uM. It is filed as cell-based. The procedure:
HEK-293 cells stably expressing wild-type (WT) hNaV1.2 (SCN2A NCBI # NM_021007.2, SCN1B NCBI # NM_001037.4, SCN2B NCBI # NM_004588.2) were used to record INa. Cells are maintained with standard tissue culture procedures and stable channel expression is maintained with 800 ug/mL G418 and 3 ug/mL Puromycin in the culture medium. Unless otherwise noted, all reagents are purchased from Sigma-Aldrich (St Louis, Mo., U.S.A.).
Assays measuring Use-Dependent Block (UDB) of Nav1.2 are performed on an automated electrophysiology platform, QPatch 16X or QPatch HT (Sophion Bioscience, Copenhagen, Denmark), using the whole cell patch clamp technique to measure currents through the cell membrane. Series resistance compensation is set to 100% and series resistance and whole-cell compensation are performed automatically. Currents stored in the Sophion Bioscience Oracle database (Sophion Bioscience, Copenhagen, Denmark). Analysis is performed using QPatch Assay software and data are compiled in Excel 2010 (Microsoft, Seattle, Wash., U.S.A.).
The internal (pipette) solution consists of (in mM) 105 CsF, 10 NaF, 20 CsCl, 2 EGTA, 10 HEPES, 10 Dextrose with a pH of 7.35 and osmolarity of 300 mOsmol/kg. The external (bath) solution contains in (mM): 145 NaCl, 4 KCl, 1.8 CaCl2, 1 MgCl2, 10 dextrose, 10 HEPES, with a pH of 7.35 and osmolarity of 310 mOsmol/kg. Experiments are carried out at 23-25° C.
Compound stocks are routinely made by the Gilead Sample Bank in vials to 10 mM in dimethyl sulfoxide (DMSO). In some cases, when compounds are not soluble in DMSO, they are made in 100% ethanol. Stocks are sonicated as necessary. […]
Cells are allowed to stabilize for 10 min after establishment of the whole-cell configuration before current is measured. The test compound is applied 2 times at 60 second intervals. After the second compound addition, a 200 second wait period was imposed to allow for equilibration. Leak currents are subtracted by using an online P/4 procedure and all currents are low-pass Bessel filtered at 5 kHz and digitized at […].
Results are presented as mean percentage inhibition.
Use-dependent block of Nav1.2 peak current is measured during pulse number 20 of a voltage pulse train (0 mV, 20 ms, 20 pulses, 25 Hz) from a holding potential of −120 mV.
Currents are normalized to the peak current recorded in response to the first pulse in each frequency train. The voltage protocol for UDB was performed in the absence and presence of compound and percentage inhibition was calculated with respect to the compound free condition.

Where [2] appears, read: tonic block of Peak INa, 0.1 Hz, holding -100 mV, read-out: Peak TB 3 uM.
[3] abbreviates: use-dependent block of Peak INa, 3 Hz, pulse 50, read-out: Peak UDB 3 Hz 3 uM.

T1 sequence (Q99250 whole entry): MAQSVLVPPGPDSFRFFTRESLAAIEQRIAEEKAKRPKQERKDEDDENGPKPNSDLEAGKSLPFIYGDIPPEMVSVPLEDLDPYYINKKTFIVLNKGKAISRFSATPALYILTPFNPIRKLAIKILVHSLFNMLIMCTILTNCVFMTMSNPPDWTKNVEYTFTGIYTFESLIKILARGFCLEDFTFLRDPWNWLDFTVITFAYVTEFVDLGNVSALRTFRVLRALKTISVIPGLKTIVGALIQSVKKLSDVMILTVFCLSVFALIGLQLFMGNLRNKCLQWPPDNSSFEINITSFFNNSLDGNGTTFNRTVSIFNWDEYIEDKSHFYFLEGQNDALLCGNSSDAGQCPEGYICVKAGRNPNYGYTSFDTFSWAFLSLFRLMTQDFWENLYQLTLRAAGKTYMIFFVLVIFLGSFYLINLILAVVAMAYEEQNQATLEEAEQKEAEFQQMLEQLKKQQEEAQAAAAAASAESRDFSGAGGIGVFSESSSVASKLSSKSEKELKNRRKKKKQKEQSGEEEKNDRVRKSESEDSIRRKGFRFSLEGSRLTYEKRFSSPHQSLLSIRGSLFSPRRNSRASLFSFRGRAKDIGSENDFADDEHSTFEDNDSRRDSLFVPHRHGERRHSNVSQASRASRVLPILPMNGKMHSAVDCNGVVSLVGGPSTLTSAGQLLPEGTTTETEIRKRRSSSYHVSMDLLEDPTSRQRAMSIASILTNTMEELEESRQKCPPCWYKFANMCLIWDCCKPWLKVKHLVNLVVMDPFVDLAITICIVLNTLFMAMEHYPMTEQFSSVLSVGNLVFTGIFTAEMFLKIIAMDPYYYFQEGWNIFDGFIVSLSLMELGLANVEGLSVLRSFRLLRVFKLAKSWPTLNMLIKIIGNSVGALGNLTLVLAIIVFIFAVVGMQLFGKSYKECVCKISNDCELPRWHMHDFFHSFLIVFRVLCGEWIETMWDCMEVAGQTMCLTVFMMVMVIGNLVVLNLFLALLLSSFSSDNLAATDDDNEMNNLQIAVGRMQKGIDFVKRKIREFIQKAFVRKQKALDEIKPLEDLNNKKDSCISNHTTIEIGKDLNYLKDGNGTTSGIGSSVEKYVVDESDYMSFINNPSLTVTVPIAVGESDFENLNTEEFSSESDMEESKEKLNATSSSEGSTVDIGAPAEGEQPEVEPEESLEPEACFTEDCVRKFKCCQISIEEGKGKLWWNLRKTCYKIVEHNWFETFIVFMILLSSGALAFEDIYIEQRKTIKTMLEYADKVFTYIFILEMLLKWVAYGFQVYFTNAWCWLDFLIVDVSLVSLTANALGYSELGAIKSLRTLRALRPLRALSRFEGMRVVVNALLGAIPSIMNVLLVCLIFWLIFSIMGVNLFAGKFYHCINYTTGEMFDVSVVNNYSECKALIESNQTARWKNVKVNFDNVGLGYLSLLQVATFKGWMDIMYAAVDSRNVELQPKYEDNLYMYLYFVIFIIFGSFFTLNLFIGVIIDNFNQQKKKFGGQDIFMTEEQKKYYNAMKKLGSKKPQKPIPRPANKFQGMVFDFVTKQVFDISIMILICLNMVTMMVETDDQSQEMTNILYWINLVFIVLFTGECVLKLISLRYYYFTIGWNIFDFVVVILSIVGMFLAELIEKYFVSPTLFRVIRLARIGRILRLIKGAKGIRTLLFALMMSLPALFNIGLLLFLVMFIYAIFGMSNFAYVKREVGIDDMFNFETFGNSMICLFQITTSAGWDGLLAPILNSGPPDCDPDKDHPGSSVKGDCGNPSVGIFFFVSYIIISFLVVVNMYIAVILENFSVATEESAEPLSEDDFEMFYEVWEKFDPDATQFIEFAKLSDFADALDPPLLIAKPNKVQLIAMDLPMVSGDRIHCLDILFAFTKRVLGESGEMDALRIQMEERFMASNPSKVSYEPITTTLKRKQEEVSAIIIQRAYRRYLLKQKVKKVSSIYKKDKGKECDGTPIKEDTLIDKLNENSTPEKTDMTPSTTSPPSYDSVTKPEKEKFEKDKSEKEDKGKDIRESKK
T1 sequence (Q07699 19-218 partner): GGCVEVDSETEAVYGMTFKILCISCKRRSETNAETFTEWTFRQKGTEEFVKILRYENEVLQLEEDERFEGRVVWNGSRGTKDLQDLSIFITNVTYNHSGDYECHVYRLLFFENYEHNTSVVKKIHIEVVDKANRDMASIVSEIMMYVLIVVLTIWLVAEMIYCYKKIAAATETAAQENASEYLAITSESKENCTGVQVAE
T1 sequence (O60939 30-215 partner): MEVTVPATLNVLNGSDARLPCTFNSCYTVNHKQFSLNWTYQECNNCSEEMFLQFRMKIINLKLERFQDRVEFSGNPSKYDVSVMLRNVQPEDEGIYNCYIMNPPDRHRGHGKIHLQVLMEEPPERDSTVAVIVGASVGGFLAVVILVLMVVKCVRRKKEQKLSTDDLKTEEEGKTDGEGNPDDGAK
wild-type human cardiac sodium channel, hNav1.5, sequence (Q14524 whole entry): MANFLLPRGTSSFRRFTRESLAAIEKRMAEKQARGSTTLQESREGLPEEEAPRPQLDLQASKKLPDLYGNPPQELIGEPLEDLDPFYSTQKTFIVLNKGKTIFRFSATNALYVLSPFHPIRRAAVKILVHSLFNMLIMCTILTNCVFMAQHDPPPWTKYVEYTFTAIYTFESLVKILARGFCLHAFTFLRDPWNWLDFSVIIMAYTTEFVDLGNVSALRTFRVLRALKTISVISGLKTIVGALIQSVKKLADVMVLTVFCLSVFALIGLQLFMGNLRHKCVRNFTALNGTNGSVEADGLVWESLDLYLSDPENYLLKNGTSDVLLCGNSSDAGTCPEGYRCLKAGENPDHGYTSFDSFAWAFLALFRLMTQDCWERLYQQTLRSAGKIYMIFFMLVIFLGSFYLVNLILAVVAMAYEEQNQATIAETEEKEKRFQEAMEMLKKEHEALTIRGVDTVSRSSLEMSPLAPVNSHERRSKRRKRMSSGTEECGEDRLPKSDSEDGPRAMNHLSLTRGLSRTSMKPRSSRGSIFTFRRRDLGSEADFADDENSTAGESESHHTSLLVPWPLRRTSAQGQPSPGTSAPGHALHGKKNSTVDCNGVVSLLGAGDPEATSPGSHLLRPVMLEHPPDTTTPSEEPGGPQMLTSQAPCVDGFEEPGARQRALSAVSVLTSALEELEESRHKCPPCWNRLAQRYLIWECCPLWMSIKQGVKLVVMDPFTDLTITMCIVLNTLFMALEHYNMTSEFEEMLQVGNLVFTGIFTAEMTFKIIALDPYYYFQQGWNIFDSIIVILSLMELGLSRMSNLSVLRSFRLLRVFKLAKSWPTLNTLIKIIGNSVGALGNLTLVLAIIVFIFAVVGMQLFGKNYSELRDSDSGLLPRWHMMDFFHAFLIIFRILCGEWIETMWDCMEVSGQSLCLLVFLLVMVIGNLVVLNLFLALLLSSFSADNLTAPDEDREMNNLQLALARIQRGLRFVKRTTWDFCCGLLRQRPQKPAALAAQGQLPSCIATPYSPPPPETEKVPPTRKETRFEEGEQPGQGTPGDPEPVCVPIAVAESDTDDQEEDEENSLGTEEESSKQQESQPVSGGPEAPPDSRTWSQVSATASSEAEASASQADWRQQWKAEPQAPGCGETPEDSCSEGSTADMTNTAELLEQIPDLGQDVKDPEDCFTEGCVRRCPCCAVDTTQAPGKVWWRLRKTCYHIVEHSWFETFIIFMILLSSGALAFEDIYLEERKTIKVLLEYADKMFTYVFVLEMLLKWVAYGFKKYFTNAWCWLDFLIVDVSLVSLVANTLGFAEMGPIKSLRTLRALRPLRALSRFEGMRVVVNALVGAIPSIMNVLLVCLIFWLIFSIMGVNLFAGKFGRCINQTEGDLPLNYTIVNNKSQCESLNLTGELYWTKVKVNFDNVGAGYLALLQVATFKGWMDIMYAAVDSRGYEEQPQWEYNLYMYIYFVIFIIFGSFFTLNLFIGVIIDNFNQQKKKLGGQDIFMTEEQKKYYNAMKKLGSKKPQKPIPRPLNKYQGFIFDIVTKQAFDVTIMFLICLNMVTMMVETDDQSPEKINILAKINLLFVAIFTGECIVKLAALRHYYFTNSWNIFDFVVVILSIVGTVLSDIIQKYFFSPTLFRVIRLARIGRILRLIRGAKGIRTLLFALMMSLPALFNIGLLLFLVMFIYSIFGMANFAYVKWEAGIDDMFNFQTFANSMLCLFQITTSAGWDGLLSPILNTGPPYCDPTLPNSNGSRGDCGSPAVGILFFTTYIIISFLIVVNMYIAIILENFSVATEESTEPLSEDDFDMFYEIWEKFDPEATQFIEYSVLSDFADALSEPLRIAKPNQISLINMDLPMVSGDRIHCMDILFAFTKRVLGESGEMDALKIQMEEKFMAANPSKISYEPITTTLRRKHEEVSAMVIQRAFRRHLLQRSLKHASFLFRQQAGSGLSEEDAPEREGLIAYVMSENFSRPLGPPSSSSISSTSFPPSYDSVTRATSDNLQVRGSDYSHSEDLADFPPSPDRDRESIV

As to `COc1ccnc(COc2noc3ccc(-c4ccc(OC(F)(F)F)cc4)cc23)n1` [Example 67, 3-((4-methoxypyrimidin-2-yl)methoxy)-5-(4-(trifluoromethoxy)phenyl)benzo[d]isoxazole], the inhibition at 3 µM was 48.7% in test [1] (setting [2]) and less than 5% in test [1] (setting [3]). Besides, the inhibition at 10 µM on hNaV1.2 (SCN2A) was less than 5%.

As for `COc1ccnc(CNc2noc3ccc(-c4ccc(OC(F)(F)F)cc4)cc23)n1` [Example 149, N-((4-methoxypyrimidin-2-yl)methyl)-5-(4-(trifluoromethoxy)phenyl)benzo[d]isoxazol-3-amine], the inhibition at 3 µM is 86.4% in test [1] (setting [2]) and less than 5% in test [1] (setting [3]). At hNaV1.2 (SCN2A), the inhibition at 10 µM worked out at 44.4%.

In the case of `OCc1cn(-c2noc3ccc(-c4ccc(OC(F)(F)F)cc4)cc23)cn1` [Example 146, (1-(5-(4-(trifluoromethoxy)phenyl)benzo[d]isoxazol-3-yl)-1H-imidazol-4-yl)methanol], the figures for the inhibition at 3 µM in test [1] (setting [2]) and in test [1] (setting [3]) were 28.8% and 25.5%, respectively. Further, the inhibition at 10 µM on hNaV1.2 (SCN2A) came to 75.8%.

As to `CCN(CC)C(=O)COc1noc2ccc(-c3ccc(OC(F)(F)F)cc3)cc12` [Example 150, N,N-diethyl-2-((5-(4-(trifluoromethoxy)phenyl)benzo[d]isoxazol-3-yl)oxy)acetamide], the values for the inhibition at 3 µM in test [1] (setting [2]) and in test [1] (setting [3]) were 58.5% and 9.3%, respectively. For the same compound, the inhibition at 10 µM at hNaV1.2 (SCN2A) was 51%.

Take `O=C1CCCN1CCNc1noc2ccc(-c3ccc(OC(F)(F)F)cc3)cc12` [Example 135, 1-(2-((5-(4-(trifluoromethoxy)phenyl)benzo[d]isoxazol-3-yl)amino)ethyl)pyrrolidin-2-one]: the inhibition at 3 µM in test [1] (setting [2]) came out at 29.3%; in test [1] (setting [3]), 18%. Moreover, the inhibition at 10 µM at hNaV1.2 (SCN2A) stood at 76.5%.

Consider `CC(C)c1nccn1-c1noc2ccc(-c3ccc(OC(F)(F)F)cc3)cc12` [Example 144, 3-(2-isopropyl-1H-imidazol-1-yl)-5-(4-(trifluoromethoxy)phenyl)benzo[d]isoxazole], for which the inhibition at 3 µM in test [1] (setting [2]) was 46.9%; in test [1] (setting [3]), less than 5%. Further, at hNaV1.2 (SCN2A), the inhibition at 10 µM stood at 75.8%.

As for `CC(=O)N1CC(COc2noc3ccc(-c4ccc(OC(F)(F)F)cc4)cc23)C1` [Example 110, 1-(3-(((5-(4-(trifluoromethoxy)phenyl)benzo[d]isoxazol-3-yl)oxy)methyl)azetidin-1-yl)ethan-1-one], the inhibition at 3 µM in test [1] (setting [2]) was found to be 14.5%; in test [1] (setting [3]), 11.5%. In addition, the inhibition at 10 µM on hNaV1.2 (SCN2A) was 67.3%.

As to `CC(=O)N1CCOC[C@@H]1COc1noc2ccc(-c3ccc(OC(F)(F)F)cc3)cc12` [Example 116, (R)-1-(3-(((5-(4-(trifluoromethoxy)phenyl)benzo[d]isoxazol-3-yl)oxy)methyl)morpholino)ethan-1-one], the inhibition at 3 µM came to 28.9% in test [1] (setting [2]) and 15% in test [1] (setting [3]). The inhibition at 10 µM on hNaV1.2 (SCN2A) came out at 62.3%.

As for `Cc1ncn(-c2noc3ccc(-c4ccc(OC(F)(F)F)cc4)cc23)n1` [Example 141, 3-(3-methyl-1H-1,2,4-triazol-1-yl)-5-(4-(trifluoromethoxy)phenyl)benzo[d]isoxazole], the inhibition at 3 µM in test [1] (setting [2]) is 17.8%; in test [1] (setting [3]) it was less than 5%. Also, the inhibition at 10 µM on hNaV1.2 (SCN2A) stood at 19.9%.

As for `FC(F)(F)Oc1ccc(-c2ccc3onc(OCC4CCO4)c3c2)cc1` (stereo not drawn) [Example 42, 3-(oxetan-2-ylmethoxy)-5-(4-(trifluoromethoxy)phenyl)benzo[d]isoxazole], the values for the inhibition at 3 µM in test [1] (setting [2]) and in test [1] (setting [3]) were 27.6% and less than 5%, respectively. Further, the inhibition at 10 µM on hNaV1.2 (SCN2A) is less than 5%.

As to `Fc1cccnc1COc1noc2ccc(-c3ccc(OC(F)(F)F)cc3)cc12` [Example 94, 3-((3-fluoropyridin-2-yl)methoxy)-5-(4-(trifluoromethoxy)phenyl)benzo[d]isoxazole], the inhibition at 3 µM is 17.1% in test [1] (setting [2]) and less than 5% in test [1] (setting [3]). The inhibition at 10 µM on hNaV1.2 (SCN2A) was less than 5%.

As for `FC(F)(F)Oc1ccc(-c2ccc3onc(OC[C@@H]4COCCN4)c3c2)cc1` [Example 113, (S)-3-(morpholin-3-ylmethoxy)-5-(4-(trifluoromethoxy)phenyl)benzo[d]isoxazole], the inhibition at 3 µM in test [1] (setting [2]) came out at 54.3%; in test [1] (setting [3]) it was 37.3%. Moreover, the inhibition at 10 µM on hNaV1.2 (SCN2A) worked out at 91.2%.

Regarding `Fc1cc(-c2ccc3onc(OCc4ncccn4)c3c2)ccc1Cl` [Example 8, 5-(4-chloro-3-fluorophenyl)-3-(pyrimidin-2-ylmethoxy)benzo[d]isoxazole], the inhibition at 3 µM in test [1] (setting [2]) was 13.1%; in test [1] (setting [3]), less than 5%. In addition, the inhibition at 10 µM on hNaV1.2 (SCN2A) was less than 5%.

With `FC(F)(F)Oc1ccc(-c2ccc3onc(OCc4nnc(C5CC5)o4)c3c2)cc1` [Example 96, 3-((5-cyclopropyl-1,3,4-oxadiazol-2-yl)methoxy)-5-(4-(trifluoromethoxy)phenyl)benzo[d]isoxazole], the inhibition at 3 µM was 29.4% in test [1] (setting [2]) and less than 5% in test [1] (setting [3]). For the same compound, on hNaV1.2 (SCN2A), the inhibition at 10 µM worked out at 5.7%.

Regarding `FC(F)(F)Oc1ccc(-c2ccc3onc(NCc4ncco4)c3c2)cc1` [Example 156, N-(oxazol-2-ylmethyl)-5-(4-(trifluoromethoxy)phenyl)benzo[d]isoxazol-3-amine], the inhibition at 3 µM was 10.4% in test [1] (setting [2]) and less than 5% in test [1] (setting [3]). On hNaV1.2 (SCN2A), the inhibition at 10 µM was 10.6%.

For the compound `Cc1cc(COc2noc3ccc(-c4ccc(OC(F)(F)F)cc4)cc23)on1` [Example 102, 3-((3-methylisoxazol-5-yl)methoxy)-5-(4-(trifluoromethoxy)phenyl)benzo[d]isoxazole], the inhibition at 3 µM was 27.8% in test [1] (setting [2]) and 7.7% in test [1] (setting [3]). Besides, on hNaV1.2 (SCN2A), the inhibition at 10 µM is 20.6%.

In the case of `CC(COc1noc2ccc(-c3ccc(OC(F)(F)F)cc3)cc12)n1cccn1` (stereo not drawn) [Example 68, 3-(2-(1H-pyrazol-1-yl)propoxy)-5-(4-(trifluoromethoxy)phenyl)benzo[d]isoxazole], the inhibition at 3 µM in test [1] (setting [2]) is 10.5%; in test [1] (setting [3]) it was less than 5%. Also, the inhibition at 10 µM on hNaV1.2 (SCN2A) is less than 5%.

On to `O=C(COc1noc2ccc(-c3ccc(OC(F)(F)F)cc3)cc12)N1CCCC1` [Example 121, 1-(pyrrolidin-1-yl)-2-((5-(4-(trifluoromethoxy)phenyl)benzo[d]isoxazol-3-yl)oxy)ethan-1-one], for which the inhibition at 3 µM in test [1] (setting [2]) worked out at 79%; in test [1] (setting [3]), 23.4%. The inhibition at 10 µM at hNaV1.2 (SCN2A) was 57.8%.

For `FC(F)(F)Oc1ccc(-c2ccc3onc(OCc4cccnn4)c3c2)cc1` [Example 74, 3-(pyridazin-3-ylmethoxy)-5-(4-(trifluoromethoxy)phenyl)benzo[d]isoxazole], the inhibition at 3 µM in test [1] (setting [2]) is 23.5%; in test [1] (setting [3]), less than 5%. The inhibition at 10 µM on hNaV1.2 (SCN2A) was less than 5%.

On to `CC(C)[C@@H](COc1noc2ccc(-c3ccc(OC(F)(F)F)cc3)cc12)N1CCCC1=O` [Example 120, (S)-1-(3-methyl-1-((5-(4-(trifluoromethoxy)phenyl)benzo[d]isoxazol-3-yl)oxy)butan-2-yl)pyrrolidin-2-one], for which the inhibition at 3 µM in test [1] (setting [2]) is 35.2%; in test [1] (setting [3]), 6.6%. On hNaV1.2 (SCN2A), the inhibition at 10 µM stood at 74.4%.

As for `FC(F)(F)Oc1ccc(-c2ccc3onc(OCc4nnc(C5CC5)s4)c3c2)cc1` [Example 154, 3-((5-cyclopropyl-1,3,4-thiadiazol-2-yl)methoxy)-5-(4-(trifluoromethoxy)phenyl)benzo[d]isoxazole], the inhibition at 3 µM in test [1] (setting [2]) was 7.68%; in test [1] (setting [3]), less than 5%. Besides, on hNaV1.2 (SCN2A), the inhibition at 10 µM was 27%.

As for `FC(F)(F)Oc1ccc(-c2ccc3onc(-n4cnc(-c5ccccc5)c4)c3c2)cc1` [Example 142, 3-(4-phenyl-1H-imidazol-1-yl)-5-(4-(trifluoromethoxy)phenyl)benzo[d]isoxazole], the inhibition at 3 µM came to 15.6% in test [1] (setting [2]) and 13.9% in test [1] (setting [3]). The inhibition at 10 µM on hNaV1.2 (SCN2A) was determined as 65%.
